Experimental data from ChEMBL document CHEMBL3885861, “Open TG-GATES”.

Organism: Rattus norvegicus
Experiment: Open TG-GATES - Regimen: Daily Repeat
Type: toxicity, organism-based, Sprague-Dawley
Parameters: regimen Daily Repeat, gender Male, age 6 weeks
Conditions: in vivo, iv, route intravenous injection; for LIVER: tissue Liver; for A/G / ALP / ALT / AST / BUN / CRE / Ca / Cl / DBIL / GLC / IP / K / LDH / Na / PL / RALB / TBIL / TC / TG / TP / gamma-GTP: tissue Plasma; for APTT / Bas / Eos / Fbg / Hb / Ht / Lym / MCH / MCHC / MCV / Mono / Neu / PT / Plat / RBC / Ret / WBC: tissue Blood; for KIDNEY_L / KIDNEY_R / KIDNEY_TOTAL: tissue Kidney
[1] = 12 mg/kg, […], dose level Middle, time 14 day
[2] = 12 mg/kg, […], dose level Middle, time 28 day
[3] = 12 mg/kg, […], dose level Middle, time 7 day
[4] = 40 mg/kg, 72 h, dose level High, time 3 day
[5] = 40 mg/kg, […], dose level High, time 7 day

CN(C)c1ncnc2c1ncn2[C@@H]1O[C@H](CO)[C@@H](N)[C@H]1O [PUROMYCIN AMINONUCLEOSIDE]
LIVER [1]: 12.1 g
LIVER [2]: 12.8 g
A/G [3]: 1.1
ALP [3]: 1114.8 IU/L
ALT [3]: 36.8 IU/L
AST [3]: 66.4 IU/L
BUN [3]: 21.8 mg/dL
CRE [3]: 0.2 mg/dL
Ca [3]: 10.8 mg/dL
Cl [3]: 107.2 meq/L
DBIL [3]: 0.002 mg/dL
GLC [3]: 174.8 mg/dL
IP [3]: 7.5 mg/dL
K [3]: 4.2 meq/L
LDH [3]: 139.2 IU/L
Na [3]: 140.4 meq/L
PL [3]: 139.2 mg/dL
RALB [3]: 2.8 g/dL
TBIL [3]: 0.014 mg/dL
TC [3]: 76.2 mg/dL
TG [3]: 86.8 mg/dL
TP [3]: 5.3 g/dL
gamma-GTP [3]: 1.4 IU/L
A/G [1]: 0.5
ALP [1]: 267.4 IU/L
ALT [1]: 31.4 IU/L
AST [1]: 35.8 IU/L
BUN [1]: 77.4 mg/dL
CRE [1]: 0.5 mg/dL
Ca [1]: 9.3 mg/dL
Cl [1]: 107.6 meq/L
DBIL [1]: 0 mg/dL
GLC [1]: 180.8 mg/dL
IP [1]: 7.8 mg/dL
K [1]: 4 meq/L
LDH [1]: 214.2 IU/L
Na [1]: 143.4 meq/L
PL [1]: 533 mg/dL
RALB [1]: 1.3 g/dL
TBIL [1]: 0 mg/dL
TC [1]: 344.6 mg/dL
TG [1]: 454 mg/dL
TP [1]: 4.1 g/dL
gamma-GTP [1]: 1.8 IU/L
A/G [2]: 0.4
ALP [2]: 137.2 IU/L
ALT [2]: 61 IU/L
AST [2]: 53.2 IU/L
BUN [2]: 86.5 mg/dL
CRE [2]: 1.1 mg/dL
Ca [2]: 8.4 mg/dL
Cl [2]: 104 meq/L
DBIL [2]: 0 mg/dL
GLC [2]: 158.8 mg/dL
IP [2]: 8.8 mg/dL
K [2]: 3.9 meq/L
LDH [2]: 391.8 IU/L
Na [2]: 142.2 meq/L
PL [2]: 854.5 mg/dL
RALB [2]: 1.3 g/dL
TBIL [2]: 0.0025 mg/dL
TC [2]: 589 mg/dL
TG [2]: 351 mg/dL
TP [2]: 4.5 g/dL
gamma-GTP [2]: 2.8 IU/L
TERMINAL_BW [4]: 218.3 g
APTT [4]: 19.2 s
Bas [4]: 0%
Eos [4]: 0.6%
Fbg [4]: 356 mg/dL
Hb [4]: 13.3 g/dL
Ht [4]: 38.2%
Lym [4]: 88.4%
MCH [4]: 20.4 pg
MCHC [4]: 34.7%
MCV [4]: 58.9 fL
Mono [4]: 2.4%
Neu [4]: 7.4%
PT [4]: 15.9 s
Plat [4]: 136.4 x10_4/uL
RBC [4]: 649 x10_4/ul
Ret [4]: 2%
WBC [4]: 82.2 x10_2/uL
KIDNEY_L [4]: 0.9 g
KIDNEY_R [4]: 1 g
KIDNEY_TOTAL [4]: 1.9 g
LIVER [4]: 9.6 g
A/G [4]: 1.2
ALP [4]: 892.8 IU/L
ALT [4]: 40.6 IU/L
AST [4]: 62 IU/L
BUN [4]: 24.2 mg/dL
CRE [4]: 0.2 mg/dL
Ca [4]: 12.3 mg/dL
Cl [4]: 102.8 meq/L
DBIL [4]: 0 mg/dL
GLC [4]: 179.6 mg/dL
IP [4]: 10.8 mg/dL
K [4]: 4.4 meq/L
LDH [4]: 154.8 IU/L
Na [4]: 141.2 meq/L
PL [4]: 153 mg/dL
RALB [4]: 3 g/dL
TBIL [4]: 0.022 mg/dL
TC [4]: 82 mg/dL
TG [4]: 64.4 mg/dL
TP [4]: 5.5 g/dL
gamma-GTP [4]: 1.8 IU/L
TERMINAL_BW [5]: 221.5 g
APTT [5]: 18 s
Bas [5]: 0%
Eos [5]: 0.6%
Fbg [5]: 621.8 mg/dL
Hb [5]: 13.7 g/dL
Ht [5]: 37.4%
Lym [5]: 84.8%
MCH [5]: 20.5 pg
MCHC [5]: 36.6%
MCV [5]: 56.2 fL
Mono [5]: 2.6%
Neu [5]: 10.8%
PT [5]: 13 s
Plat [5]: 106.2 x10_4/uL
RBC [5]: 665.2 x10_4/ul
Ret [5]: 0.8%
WBC [5]: 108.1 x10_2/uL
KIDNEY_L [5]: 1.2 g
KIDNEY_R [5]: 1.2 g
KIDNEY_TOTAL [5]: 2.4 g
LIVER [5]: 8.2 g
A/G [5]: 0.4
ALP [5]: 264.4 IU/L
ALT [5]: 65.8 IU/L
AST [5]: 78.6 IU/L
BUN [5]: 166.8 mg/dL
CRE [5]: 1 mg/dL
Ca [5]: 9.1 mg/dL
Cl [5]: 101 meq/L
DBIL [5]: 0 mg/dL
GLC [5]: 164.4 mg/dL
IP [5]: 12.6 mg/dL
K [5]: 5 meq/L
LDH [5]: 484 IU/L
Na [5]: 135.4 meq/L
PL [5]: 387.2 mg/dL
RALB [5]: 1.1 g/dL
TBIL [5]: 0.01 mg/dL
TC [5]: 266.6 mg/dL
TG [5]: 125.6 mg/dL
TP [5]: 3.5 g/dL
gamma-GTP [5]: 2.4 IU/L
